The structures appear in SMILES notation. A value given as a limit tells only on which side of the number the result lay.

Data set [1] has as its target T1, human 5-HT1A receptor (Homo sapiens, UniProt P08908).
T1 sequence (P08908 1-422): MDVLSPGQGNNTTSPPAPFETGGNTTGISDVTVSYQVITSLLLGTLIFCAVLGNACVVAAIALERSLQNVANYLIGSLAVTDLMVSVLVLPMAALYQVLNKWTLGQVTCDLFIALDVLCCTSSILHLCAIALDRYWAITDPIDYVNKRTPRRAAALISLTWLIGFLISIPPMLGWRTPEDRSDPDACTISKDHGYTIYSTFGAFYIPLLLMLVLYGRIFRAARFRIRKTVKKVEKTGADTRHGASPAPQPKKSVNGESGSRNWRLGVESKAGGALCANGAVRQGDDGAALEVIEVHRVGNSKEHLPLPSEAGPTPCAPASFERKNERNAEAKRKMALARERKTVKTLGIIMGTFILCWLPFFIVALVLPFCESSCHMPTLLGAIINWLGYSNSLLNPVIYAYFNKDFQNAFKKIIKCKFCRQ
Description: 5-HT1A receptor [^3H]8-OH-DPAT radioligand binding.

For data set [2], the target named is T2, 5-HT2B receptor (Homo sapiens, UniProt P41595). Description: 5-HT2B receptor inositol monophosphate. Format: cell-based. The note with it: for Emax: read-out: % maximum stimulation, 5-HT2B stimulation of IP-1 formation.
The target of data set [3] is T3, 5-HT2C receptor (Homo sapiens, UniProt P28335).
T3 sequence (P28335 33-458): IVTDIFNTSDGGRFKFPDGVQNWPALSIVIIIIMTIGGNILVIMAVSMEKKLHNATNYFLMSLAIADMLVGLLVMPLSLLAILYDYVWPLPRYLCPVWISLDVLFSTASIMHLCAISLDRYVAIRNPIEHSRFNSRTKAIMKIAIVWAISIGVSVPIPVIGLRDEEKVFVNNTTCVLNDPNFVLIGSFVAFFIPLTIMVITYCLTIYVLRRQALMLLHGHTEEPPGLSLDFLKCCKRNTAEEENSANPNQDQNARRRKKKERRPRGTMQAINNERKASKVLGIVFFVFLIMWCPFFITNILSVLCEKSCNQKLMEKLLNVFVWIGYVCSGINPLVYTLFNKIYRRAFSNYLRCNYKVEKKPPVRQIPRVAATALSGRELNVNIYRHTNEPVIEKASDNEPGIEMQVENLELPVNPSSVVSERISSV
Description: cell-based. The following applies: for Emax: read-out: % maximum stimulation, 5-HT2C stimulation of IP-1 formation.

The target of data set [4] is T4, 5-HT2A receptor (Homo sapiens, UniProt P28223). Nature of the data set: biochemical. Format: binding. The following applies: for Selectivity (binding ratios) 5-HT2A : 5-HT1A / Selectivity (binding ratios) 5-HT2A : 5-HT2B / Selectivity (binding ratios) 5-HT2A : 5-HT2C: ratio of Ki values.
Data set [5] has as its target T5, hSERT (Homo sapiens, UniProt P31645). Description: Inhibition of [^3H]5-HT uptake by HEK-hSERT cells. Format: cell-based.
Data set [6] concerns the target T6, hDAT (Homo sapiens, UniProt Q01959). Description: Inhibition of [^3H]DA uptake by HEK-hDAT cells. Format: cell-based.
The target in data set [7] is T7, hNET (Homo sapiens, UniProt P23975). Nature of the data set: biochemical. The data set is classed as binding.
In data set [8] the target is T1, human 5-HT1A receptor. Description: 5-HT1A receptor [^35S]GTPγS binding stimulation. Format: biochemical. The note with it: for Emax: read-out: % maximum stimulation, 5-HT1A stimulation of [^35S]GTPγS binding. A general note: GTPγS resists hydrolysis and so accumulates on activated G proteins.
For data set [9], the target named is T7, hNET. Nature of the data set: cell-based.
Data set [10] has as its target T5, hSERT. Description: Inhibition of [^125I]RTI-55 binding to hSERT.
For data set [11], the target named is T7, hNET. Nature of the data set: Release of preloaded [^3H]NE from HEK-hNET cells. The note with it: for % maximum release, hNET [^3H]NE: relative to maximum release induced by METH (0.3–1 μM). Format: cell-based.
The target of data set [12] is T2, 5-HT2B receptor. Description: 5-HT2B receptor [^3H]5-HT binding.
Data set [13] concerns the target T6, hDAT. Description: Inhibition of [^125I]RTI-55 binding to hDAT.
In data set [14] the target is T6, hDAT. Description: Release of preloaded [^3H]DA from HEK-hDAT cells. Format: cell-based. The note with it: for % maximum release, hDAT [^3H]DA: relative to maximum release induced by METH (1–10 μM).
The target in data set [15] is T4, 5-HT2A receptor. Nature of the data set: cell-based. Format: cell-based. The note with it: for EC50: EC50, 5-HT2A stimulation of IP-1 formation, mean ± sem; for Emax: read-out: % maximum stimulation, 5-HT2A stimulation of IP-1 formation.
Data set [16] addresses T5, hSERT. Description: Release of preloaded [^3H]5-HT from HEK-hSERT cells. Format: cell-based. The note with it: for % maximum release, hSERT [^3H]5-HT: relative to maximum release induced by METH (0.3–1 mM).
The conditions of data set [17]: taken hours after ingestion; cited from earlier work.

T5 sequence (P31645 whole entry): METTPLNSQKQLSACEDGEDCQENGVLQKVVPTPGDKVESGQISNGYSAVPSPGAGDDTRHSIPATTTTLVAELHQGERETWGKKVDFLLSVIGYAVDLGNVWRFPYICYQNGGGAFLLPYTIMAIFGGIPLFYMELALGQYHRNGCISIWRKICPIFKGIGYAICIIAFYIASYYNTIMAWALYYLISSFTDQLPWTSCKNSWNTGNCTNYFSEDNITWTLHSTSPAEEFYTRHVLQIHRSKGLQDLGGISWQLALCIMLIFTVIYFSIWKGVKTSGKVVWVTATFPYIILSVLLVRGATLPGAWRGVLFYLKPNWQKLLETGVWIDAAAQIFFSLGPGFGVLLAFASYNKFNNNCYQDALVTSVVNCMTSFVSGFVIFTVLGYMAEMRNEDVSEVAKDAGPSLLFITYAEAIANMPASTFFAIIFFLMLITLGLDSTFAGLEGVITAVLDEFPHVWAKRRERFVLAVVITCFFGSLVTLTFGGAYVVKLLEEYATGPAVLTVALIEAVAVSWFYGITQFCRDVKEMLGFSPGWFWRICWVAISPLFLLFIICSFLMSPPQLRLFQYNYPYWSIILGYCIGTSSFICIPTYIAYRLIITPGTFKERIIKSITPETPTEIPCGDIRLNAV
T2 sequence (P41595 whole entry): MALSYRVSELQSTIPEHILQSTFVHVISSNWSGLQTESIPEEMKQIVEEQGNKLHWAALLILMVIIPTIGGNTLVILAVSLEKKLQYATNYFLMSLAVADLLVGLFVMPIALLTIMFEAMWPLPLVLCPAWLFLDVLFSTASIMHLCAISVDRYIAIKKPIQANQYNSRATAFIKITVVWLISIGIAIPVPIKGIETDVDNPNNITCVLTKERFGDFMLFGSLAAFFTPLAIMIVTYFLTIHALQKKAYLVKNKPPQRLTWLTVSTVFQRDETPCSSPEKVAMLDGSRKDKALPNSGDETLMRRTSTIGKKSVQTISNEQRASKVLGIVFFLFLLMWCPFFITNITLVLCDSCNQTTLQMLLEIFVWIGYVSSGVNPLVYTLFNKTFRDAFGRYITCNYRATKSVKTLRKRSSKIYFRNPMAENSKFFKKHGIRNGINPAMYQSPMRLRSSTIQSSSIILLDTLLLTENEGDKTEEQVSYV
T4 sequence (P28223 whole entry): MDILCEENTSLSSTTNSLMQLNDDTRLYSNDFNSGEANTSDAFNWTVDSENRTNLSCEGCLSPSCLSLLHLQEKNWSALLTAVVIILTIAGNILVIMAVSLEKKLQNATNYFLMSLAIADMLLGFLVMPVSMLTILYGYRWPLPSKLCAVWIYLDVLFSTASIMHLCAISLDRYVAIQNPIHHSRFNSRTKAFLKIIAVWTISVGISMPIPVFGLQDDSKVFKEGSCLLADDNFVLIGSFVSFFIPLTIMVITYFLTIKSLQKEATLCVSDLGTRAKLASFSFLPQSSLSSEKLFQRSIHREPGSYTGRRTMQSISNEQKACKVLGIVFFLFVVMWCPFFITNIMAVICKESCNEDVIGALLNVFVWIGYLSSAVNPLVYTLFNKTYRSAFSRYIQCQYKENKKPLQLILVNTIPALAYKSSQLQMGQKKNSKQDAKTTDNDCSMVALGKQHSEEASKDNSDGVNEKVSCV
T7 sequence (P23975 whole entry): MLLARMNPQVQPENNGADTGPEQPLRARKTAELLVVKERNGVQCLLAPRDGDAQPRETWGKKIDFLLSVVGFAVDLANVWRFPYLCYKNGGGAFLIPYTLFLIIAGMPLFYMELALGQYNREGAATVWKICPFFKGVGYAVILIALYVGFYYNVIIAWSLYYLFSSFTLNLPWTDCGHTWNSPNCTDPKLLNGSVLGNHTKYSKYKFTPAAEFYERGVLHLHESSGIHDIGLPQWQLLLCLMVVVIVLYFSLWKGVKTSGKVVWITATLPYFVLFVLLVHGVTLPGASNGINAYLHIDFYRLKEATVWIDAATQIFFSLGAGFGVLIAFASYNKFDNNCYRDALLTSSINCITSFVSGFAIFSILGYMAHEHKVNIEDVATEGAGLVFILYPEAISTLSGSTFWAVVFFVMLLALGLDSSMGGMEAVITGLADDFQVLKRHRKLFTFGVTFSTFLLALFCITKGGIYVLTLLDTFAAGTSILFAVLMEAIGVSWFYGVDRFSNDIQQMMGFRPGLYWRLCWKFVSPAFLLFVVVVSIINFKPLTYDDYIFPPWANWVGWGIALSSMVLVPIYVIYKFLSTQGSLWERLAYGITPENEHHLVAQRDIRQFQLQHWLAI
T6 sequence (Q01959 whole entry): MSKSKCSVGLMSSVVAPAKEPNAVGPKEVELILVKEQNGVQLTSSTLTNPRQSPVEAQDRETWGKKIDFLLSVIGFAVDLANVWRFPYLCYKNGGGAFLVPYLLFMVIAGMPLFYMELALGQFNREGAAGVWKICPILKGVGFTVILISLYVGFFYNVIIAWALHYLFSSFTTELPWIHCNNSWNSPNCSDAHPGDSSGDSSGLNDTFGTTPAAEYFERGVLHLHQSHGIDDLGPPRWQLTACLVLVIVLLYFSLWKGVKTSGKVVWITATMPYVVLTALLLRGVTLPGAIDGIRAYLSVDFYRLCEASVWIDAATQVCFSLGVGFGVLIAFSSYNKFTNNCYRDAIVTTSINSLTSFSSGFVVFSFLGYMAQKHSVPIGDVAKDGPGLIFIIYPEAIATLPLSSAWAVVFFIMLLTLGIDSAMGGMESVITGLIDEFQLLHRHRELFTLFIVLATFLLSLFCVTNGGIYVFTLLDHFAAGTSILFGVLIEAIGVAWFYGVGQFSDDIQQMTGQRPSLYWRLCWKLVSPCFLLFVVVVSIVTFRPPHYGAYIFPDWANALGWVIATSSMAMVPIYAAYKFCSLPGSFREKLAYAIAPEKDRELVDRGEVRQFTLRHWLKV

A word on the Ki: it is a measure of affinity in units of concentration, obtained from inhibition or displacement. A higher Ki goes with weaker binding. One may read the EC50 as the midpoint of the concentration-response curve. High values mean a less potent agent, low ones a more potent agent. A word on the IC50: it is the point on the concentration scale where inhibition reaches its midpoint. `COc1cc(CCNCc2ccccc2OC)c(OC)cc1C` [25D-NBOMe, 2-(2,5-dimethoxy-4-methylphenyl)-N-(2-methoxybenzyl)ethanamine]: the Ki in [1] is 4510 ± 730 nM; in [4], 0.22 ± 0.026 nM; in [7], 6700 ± 1300 nM; in data set [10], 1780 ± 280 nM; in [12] it was 2.05 ± 0.49 nM; in data set [13], 34500 ± 4200 nM. The EC50 was 32.3 ± 6.8 nM in [2]; 1.37 ± 0.36 nM in [3]; 5900 ± 1900 nM in data set [8]; above 33000 nM in data set [11]; above 100000 nM in [14]; 1.53 ± 0.1 nM in [15]. The EC50 in data set [16] was above 100000 nM. Besides, the Emax was 47.7% in data set [2], 96.1% in data set [3], 55% in [8] and 95.1% in data set [15]. Besides, in [4], the “Selectivity (binding ratios) 5-HT2A : 5-HT1A” value is reported as 20500. In data set [4], the “Selectivity (binding ratios) 5-HT2A : 5-HT2B” value is listed as 9.3. Further, in [4], the “Selectivity (binding ratios) 5-HT2A : 5-HT2C” value is reported as 3.1. The values for the IC50 in data set [5], in [6] and in data set [9] were 1020 ± 78 nM, above 85000 nM and 1170 ± 140 nM, respectively. In [11], the “% maximum release, hNET [^3H]NE” value was 14.3 ± 8.5%. For the same molecule, the “% maximum release, hDAT [^3H]DA” value in data set [14] came to 0.75 ± 0.48%. In addition, in data set [15] (ratio of EC50 values), the “Selectivity (functional ratios) 5-HT2A: 5-HT1A” value worked out at 3900. Also, the “Selectivity (functional ratios) 5-HT2A: 5-HT2B” value in data set [15] (ratio of EC50 values) came out at 21. In addition, in data set [15] (ratio of EC50 values), the “Selectivity (functional ratios) 5-HT2A: 5-HT2C” value came out at 0.90. The “% maximum release, hSERT [^3H]5-HT” value in [16] is listed as 0.59 ± 0.24%.

As to `COc1cc(CCNCc2ccccc2OC)c(OC)cc1Cl` [25C-NBOMe], the Human blood concentration in data set [17] was 2.80 ng/mL.

For `COc1cc(CCNCc2ccccc2O)c(OC)cc1I` [25I-NBOH, 2-(((4-iodo-2,5-dimethoxyphenethyl)amino)methyl)phenol], the Ki in [1] was determined as 2220 ± 590 nM; in data set [4], 0.169 ± 0.013 nM; in data set [7], 4060 ± 650 nM; in [10], 1220 ± 210 nM; in [12], 1.91 ± 0.48 nM; in data set [13], 8500 ± 380 nM. For the same molecule, the EC50 in [2] is 111 ± 13 nM; in data set [3] it was 2.38 ± 0.72 nM; in data set [8] it was 37000 ± 13000 nM; in data set [11], above 100000 nM; in [14], above 100000 nM; in [15], 0.76 ± 0.26 nM. The molecule also yielded an EC50 in data set [16] above 100000 nM. In addition, the Emax in data set [2] is 21.3%; in data set [3], 94%; in data set [8] it was 74%; in [15] it was 87.5%. Further, in data set [4], the “Selectivity (binding ratios) 5-HT2A : 5-HT1A” value stood at 13100. In addition, the “Selectivity (binding ratios) 5-HT2A : 5-HT2B” value in data set [4] came to 11. Moreover, the “Selectivity (binding ratios) 5-HT2A : 5-HT2C” value in [4] worked out at 6.1. Also, the values for the IC50 in data set [5], in data set [6] and in data set [9] were 1720 ± 250 nM, 30700 ± 5000 nM and 629 ± 93 nM, respectively. For the same molecule, in data set [11], the “% maximum release, hNET [^3H]NE” value was determined as 16 ± 16%. The “% maximum release, hDAT [^3H]DA” value in data set [14] is given as −0.56 ± 0.35%. Also, in [15] (ratio of EC50 values), the “Selectivity (functional ratios) 5-HT2A: 5-HT2B” value was determined as 146. The “Selectivity (functional ratios) 5-HT2A: 5-HT2C” value in [15] (ratio of EC50 values) is reported as 3.1. Besides, the “% maximum release, hSERT [^3H]5-HT” value in [16] was −0.27 ± 0.40%.

Source of the values: PMC6298744 (Biochemical pharmacology, 2018).
